Key:
[1] = system: α1 adrenergic receptors (rat cerebral cortex); assay: Binding assay, α1 adrenergic receptor ([3H]prazosin); conditions: compound 1×10^−6 M
Protocol: (§1) The specific ligand binding to the receptors is defined as the difference between the total binding and the non-specific binding determined in the presence of an excess of unlabelled ligand.
(§2) The inhibition constants (Ki) were calculated using the Cheng Prusoff equation (Ki=IC50/(1+(L/KD)), where L=concentration of radioligand in the assay, and KD=affinity of the radioligand for the receptor). A Scatchard plot is used to determine the Kd. The IC50 values (concentration causing a half-maximal inhibition of control specific binding) and Hill coefficients (nH) were determined by non-linear regression analysis of the competition curves generated with mean replicate values using Hill equation curve fitting (Y=D+[(A−D)/(1+(C/C50)^nH)], where Y=specific binding, D=minimum specific binding, A=maximum specific binding, C=compound concentration, C50=IC50, and nH=slope factor). This analysis was performed using a software developed at Cerep (Hill software) and validated by comparison with data generated by the commercial software SigmaPlot® 4.0 for Windows® (©1997 by SPSS Inc.).
Experimental conditions for tests are given in Table 7, and results of tests for representative compounds are given in Tables 8a and 8b (α1 receptors) and in Tables 9a and 9b (α2C receptors).

[2] = molecular target: T1, D2S (h), human recombinant (HEK-293 cells) (Homo sapiens, UniProt P14416); assay: Cellular functional assay D2S (h) antagonism; type: cell-based; conditions: HEK293; compound 1×10^−6 M; stimulus dopamine 30 nM; read-out: D2-antag [%]
T1 construct: expressed in transfected cells; host or cells: HEK-293 cells
Protocol: (§3) The results are expressed as a percent of control specific agonist response ((measured specific response/control specific agonist response)×100) obtained in the presence of tested compound.
(§4) The EC50 values (concentration producing a half-maximal specific response) and IC50 values (concentration causing a half-maximal inhibition of the control specific agonist response) were determined by non-linear regression analysis of the concentration-response curves generated with mean replicate values using Hill equation curve fitting (Y=D+[(A−D)/(1+(C/C50)nH)], where Y=specific response, D=minimum specific response, A=maximum specific response, C=compound concentration, and C50=EC50 or IC50, and nH=slope factor).
(§5) For the antagonists, the apparent dissociation constants (Kb) were calculated using the modified Cheng Prusoff equation (Kb=IC50/(1+(A/EC50A)), where A=concentration of reference agonist in the assay, and EC50A=EC50 value of the reference agonist).

[3] = molecular target: T2, 5-HT6 (h), human recombinant (CHO cells) (Homo sapiens, UniProt P50406); assay: Cellular functional assay 5-HT6 (h) antagonism; type: cell-based; conditions: compound 1×10^−6 M, stimulus serotonin 100 nM, read-out: 5-HT6-antag [%]
T2 construct: expressed in transfected cells; host or cells: CHO cells
Protocol: as §3, §4, §5

[4] = molecular target: T1, D2S (h), human recombinant (HEK-293 cells); assay: Cellular functional assay D2S (h) agonism; type: cell-based; conditions: HEK293; compound 1×10^−6 M; control 3 μM dopamine; read-out: D2-ag [%]
Protocol: as §3, §4, §5

[5] = molecular target: T2, 5-HT6 (h), human recombinant (CHO cells); assay: Cellular functional assay 5-HT6 (h) agonism; type: cell-based; conditions: compound 1×10^−6 M, control 10 μM serotonin, read-out: 5-HT6-ag [%]
Protocol: as §3, §4, §5

[6] = molecular target: T3, 5-HT6 receptor, human recombinant (Homo sapiens, UniProt P50406); assay: Binding assay, 5-HT6 receptor ([3H]LSD); conditions: compound 1×10^−6 M
T3 construct: purchased PerkinElmer
Protocol: (§6) Moreover, ability of the compounds of the invention to block potassium channel hERG was tested.
as §1
as §2, with “factor).” for “factor). This analysis was performed using a software developed at Cerep (Hill software) and validated by comparison with data generated by the commercial software SigmaPlot® 4.0 for Windows® (©1997 by SPSS Inc.).”

[7] = molecular target: T4, human recombinant SERT receptor (CHO cells) (Homo sapiens, UniProt P31645); assay: Binding assay, serotonine transporter (SERT) ([3H]imipramine); conditions: compound 1×10^−6 M
T4 construct: expressed in transfected cells; host or cells: CHO cells
Protocol: as §6, §1
as §2, with “factor).” for “factor). This analysis was performed using a software developed at Cerep (Hill software) and validated by comparison with data generated by the commercial software SigmaPlot® 4.0 for Windows® (©1997 by SPSS Inc.).”

[8] = molecular target: T5, 5-HT7 receptor, human recombinant (Homo sapiens, UniProt P34969); assay: Binding assay, 5-HT7 receptor ([3H]LSD); conditions: compound 1×10^−6 M
T5 construct: purchased PerkinElmer
Protocol: as §6, §1
as §2, with “factor).” for “factor). This analysis was performed using a software developed at Cerep (Hill software) and validated by comparison with data generated by the commercial software SigmaPlot® 4.0 for Windows® (©1997 by SPSS Inc.).”

[9] = molecular target: T6, human recombinant D3 receptors (Homo sapiens, UniProt P35462); assay: Binding assay, dopaminergic D3 receptor ([3H]methylspiperone); conditions: compound 1×10^−6 M
T6 construct: purchased PerkinElmer
Protocol: as §6, §1
as §2, with “factor).” for “factor). This analysis was performed using a software developed at Cerep (Hill software) and validated by comparison with data generated by the commercial software SigmaPlot® 4.0 for Windows® (©1997 by SPSS Inc.).”

[10] = molecular target: T7, 5-HT1A receptor (rat hippocampus) (Rattus norvegicus, UniProt P19327); assay: Binding assay, 5-HT1A receptor ([3H]8-OH-DPAT); conditions: compound 1×10^−6 M
T7 construct: hippocampus; from tissue; host or cells: rat hippocampus
T7 sequence (P19327 1-422): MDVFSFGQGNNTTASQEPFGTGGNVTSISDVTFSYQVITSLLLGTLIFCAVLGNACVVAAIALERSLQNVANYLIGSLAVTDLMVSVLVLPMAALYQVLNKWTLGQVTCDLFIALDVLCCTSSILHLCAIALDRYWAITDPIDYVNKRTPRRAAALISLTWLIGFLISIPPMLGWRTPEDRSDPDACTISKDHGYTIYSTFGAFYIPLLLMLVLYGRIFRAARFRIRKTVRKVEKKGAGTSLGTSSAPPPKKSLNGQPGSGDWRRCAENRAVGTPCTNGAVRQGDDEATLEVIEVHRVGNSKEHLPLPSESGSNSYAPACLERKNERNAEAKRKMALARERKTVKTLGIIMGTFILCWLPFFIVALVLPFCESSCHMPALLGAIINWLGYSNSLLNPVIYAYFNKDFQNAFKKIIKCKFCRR
Protocol: as §6, §1
as §2, with “factor).” for “factor). This analysis was performed using a software developed at Cerep (Hill software) and validated by comparison with data generated by the commercial software SigmaPlot® 4.0 for Windows® (©1997 by SPSS Inc.).”

[11] = molecular target: T8, D2 receptor, human recombinant (GeneBLAzer D2-Gqo5 CHO-K1 DA) (Homo sapiens, UniProt P14416); assay: Binding assay, dopaminergic D2 receptor ([3H]methylspiperone); conditions: compound 1×10^−6 M
T8 construct: purchased Invitrogen; host or cells: CHO-K1 (GeneBLAzer D2-Gqo5 CHO-K1 DA)
Protocol: as §6, §1
as §2, with “factor).” for “factor). This analysis was performed using a software developed at Cerep (Hill software) and validated by comparison with data generated by the commercial software SigmaPlot® 4.0 for Windows® (©1997 by SPSS Inc.).”

[12] = molecular target: 5-HT2A receptor, human recombinant (Homo sapiens, UniProt P28223); assay: Binding assay, 5-HT2A receptor ([3H]ketanserin); design: purchased PerkinElmer; conditions: compound 1×10^−6 M
Protocol: as §6, §1
as §2, with “factor).” for “factor). This analysis was performed using a software developed at Cerep (Hill software) and validated by comparison with data generated by the commercial software SigmaPlot® 4.0 for Windows® (©1997 by SPSS Inc.).”

T2 sequence (P50406 whole entry): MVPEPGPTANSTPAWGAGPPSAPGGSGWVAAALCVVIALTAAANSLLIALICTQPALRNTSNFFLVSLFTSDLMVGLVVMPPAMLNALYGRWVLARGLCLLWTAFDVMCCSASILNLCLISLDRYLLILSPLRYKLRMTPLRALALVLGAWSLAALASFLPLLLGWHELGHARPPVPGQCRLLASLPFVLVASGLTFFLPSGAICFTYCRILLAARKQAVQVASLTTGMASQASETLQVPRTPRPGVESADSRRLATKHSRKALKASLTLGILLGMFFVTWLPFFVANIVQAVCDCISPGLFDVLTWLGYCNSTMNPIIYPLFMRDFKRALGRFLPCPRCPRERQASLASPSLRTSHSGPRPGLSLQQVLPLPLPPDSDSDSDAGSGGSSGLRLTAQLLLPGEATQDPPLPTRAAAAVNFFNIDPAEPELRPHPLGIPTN
T1 sequence (P14416 1-414 isoform P14416-2): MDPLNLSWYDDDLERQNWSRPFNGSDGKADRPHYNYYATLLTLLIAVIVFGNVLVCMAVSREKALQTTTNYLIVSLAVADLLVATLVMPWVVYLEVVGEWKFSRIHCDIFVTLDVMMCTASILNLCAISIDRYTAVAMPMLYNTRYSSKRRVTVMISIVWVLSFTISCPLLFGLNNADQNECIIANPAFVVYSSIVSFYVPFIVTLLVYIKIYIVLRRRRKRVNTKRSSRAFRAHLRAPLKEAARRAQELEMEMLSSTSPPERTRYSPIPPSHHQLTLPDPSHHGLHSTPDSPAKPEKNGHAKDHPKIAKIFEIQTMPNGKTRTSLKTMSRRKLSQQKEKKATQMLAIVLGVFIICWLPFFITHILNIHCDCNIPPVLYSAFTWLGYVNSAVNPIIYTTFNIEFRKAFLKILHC
T5 sequence (P34969 whole entry): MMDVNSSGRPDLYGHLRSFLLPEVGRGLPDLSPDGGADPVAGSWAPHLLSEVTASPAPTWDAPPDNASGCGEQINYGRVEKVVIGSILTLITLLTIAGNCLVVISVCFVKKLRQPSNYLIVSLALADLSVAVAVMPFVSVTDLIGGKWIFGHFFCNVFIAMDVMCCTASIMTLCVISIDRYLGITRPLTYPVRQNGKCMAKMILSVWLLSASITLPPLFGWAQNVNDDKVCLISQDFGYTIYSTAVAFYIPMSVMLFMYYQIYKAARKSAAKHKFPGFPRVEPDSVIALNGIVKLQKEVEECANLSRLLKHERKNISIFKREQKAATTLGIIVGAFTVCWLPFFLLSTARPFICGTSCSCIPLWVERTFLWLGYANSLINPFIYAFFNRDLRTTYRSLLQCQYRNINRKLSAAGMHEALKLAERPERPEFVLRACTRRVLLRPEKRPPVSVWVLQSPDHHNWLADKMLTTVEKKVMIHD
T3 sequence (P50406 whole entry): as the sequence (P50406 whole entry) above
Sequence of 5-HT2A receptor, human recombinant (P28223 whole entry): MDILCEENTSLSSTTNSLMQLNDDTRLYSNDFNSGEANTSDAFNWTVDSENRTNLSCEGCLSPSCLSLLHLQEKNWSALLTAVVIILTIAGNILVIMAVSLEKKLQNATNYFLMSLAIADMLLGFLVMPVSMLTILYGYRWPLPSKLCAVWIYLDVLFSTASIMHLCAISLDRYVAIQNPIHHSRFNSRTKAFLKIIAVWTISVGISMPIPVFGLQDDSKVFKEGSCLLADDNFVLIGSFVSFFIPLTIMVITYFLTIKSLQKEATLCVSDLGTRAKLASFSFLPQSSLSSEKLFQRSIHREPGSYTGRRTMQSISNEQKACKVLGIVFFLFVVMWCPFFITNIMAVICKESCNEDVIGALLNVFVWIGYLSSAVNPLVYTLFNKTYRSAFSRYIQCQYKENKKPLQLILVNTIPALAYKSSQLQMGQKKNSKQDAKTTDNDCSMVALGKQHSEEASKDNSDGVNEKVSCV
T6 sequence (P35462 whole entry): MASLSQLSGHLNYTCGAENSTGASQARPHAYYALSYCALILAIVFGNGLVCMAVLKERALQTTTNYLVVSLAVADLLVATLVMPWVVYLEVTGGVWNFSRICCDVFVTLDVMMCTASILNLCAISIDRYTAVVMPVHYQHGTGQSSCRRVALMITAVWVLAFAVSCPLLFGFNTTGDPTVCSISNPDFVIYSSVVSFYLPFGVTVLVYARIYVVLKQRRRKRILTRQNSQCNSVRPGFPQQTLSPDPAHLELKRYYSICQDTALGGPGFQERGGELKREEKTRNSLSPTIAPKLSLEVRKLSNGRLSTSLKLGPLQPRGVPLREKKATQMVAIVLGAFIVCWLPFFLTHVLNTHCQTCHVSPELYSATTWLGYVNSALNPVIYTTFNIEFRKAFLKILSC
T8 sequence (P14416 whole entry): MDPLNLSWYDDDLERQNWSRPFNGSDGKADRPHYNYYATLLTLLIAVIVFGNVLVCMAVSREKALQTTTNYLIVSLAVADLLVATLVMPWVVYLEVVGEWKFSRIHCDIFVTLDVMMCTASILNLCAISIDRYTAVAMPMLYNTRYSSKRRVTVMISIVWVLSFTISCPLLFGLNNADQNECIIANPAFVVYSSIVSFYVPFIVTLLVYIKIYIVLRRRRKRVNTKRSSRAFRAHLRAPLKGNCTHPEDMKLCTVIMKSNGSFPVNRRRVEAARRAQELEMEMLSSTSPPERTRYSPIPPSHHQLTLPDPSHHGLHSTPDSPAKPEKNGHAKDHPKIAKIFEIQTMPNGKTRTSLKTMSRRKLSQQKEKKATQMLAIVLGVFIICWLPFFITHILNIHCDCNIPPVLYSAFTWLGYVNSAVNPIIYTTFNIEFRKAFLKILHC
T4 sequence (P31645 whole entry): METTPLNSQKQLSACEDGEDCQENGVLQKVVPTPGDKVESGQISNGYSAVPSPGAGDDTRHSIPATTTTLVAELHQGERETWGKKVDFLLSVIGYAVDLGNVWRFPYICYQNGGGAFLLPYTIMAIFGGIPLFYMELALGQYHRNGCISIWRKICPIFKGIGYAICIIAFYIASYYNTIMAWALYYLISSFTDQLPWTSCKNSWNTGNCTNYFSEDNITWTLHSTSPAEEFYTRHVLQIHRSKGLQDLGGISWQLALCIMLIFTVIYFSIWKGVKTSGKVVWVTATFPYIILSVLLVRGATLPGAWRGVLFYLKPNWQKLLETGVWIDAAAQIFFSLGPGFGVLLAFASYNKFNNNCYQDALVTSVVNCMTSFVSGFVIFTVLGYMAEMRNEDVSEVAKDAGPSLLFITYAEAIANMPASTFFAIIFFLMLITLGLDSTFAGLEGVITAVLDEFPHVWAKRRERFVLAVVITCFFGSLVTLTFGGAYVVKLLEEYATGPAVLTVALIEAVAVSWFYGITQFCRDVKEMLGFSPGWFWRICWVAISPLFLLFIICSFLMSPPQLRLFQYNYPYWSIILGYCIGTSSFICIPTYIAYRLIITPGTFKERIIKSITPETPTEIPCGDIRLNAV

In the case of `O=S(=O)(c1ccccc1)n1ccc2c(N3CCN(CCCOc4ccccc4)CC3)cccc21` [Compound 12, 4-(4-(3-Phenoxypropyl)piperazin-1-yl)-1-(phenylsulphonyl)-1H-indole], the “α1 [%] affinity test result” value [1] is reported as 83%, the inhibition at 1 µM [2] is reported as 73% and the inhibition at 1 µM [3] is reported as 73%. For the same compound, the activation at 1 µM [4] was 11% and the activation at 1 µM [5] was -2%.
In the case of `O=S(=O)(c1ccccc1)n1ccc2c(N3CCN(CCCOc4ccc(F)cc4)CC3)cccc21` [Compound 15, 4-(4-(3-(4-Fluorophenoxy)propyl)piperazin-1-yl)-1-(phenylsulphonyl)-1H-indole], the “α1 [%] affinity test result” value [1] is reported as 93%, the inhibition at 1 µM [2] is reported as 68% and the inhibition at 1 µM [3] is reported as 88%. It also gave an activation at 1 µM [4] of 11% and an activation at 1 µM [5] of 0%.
In the case of `CC(C)Oc1ccccc1OCCCN1CCN(c2cccc3c2ccn3S(=O)(=O)c2ccccc2)CC1` [Compound 21, 4-(4-(3-(2-(1-Methylethoxy)phenoxy)propyl)piperazin-1-0)-1-(phenylsulphonyl)-1H-indole], the “α1 [%] affinity test result” value [1] is reported as 83%, the “5-HT6 [%] binding assay result” value [6] is reported as 97% and the “SERT [%] affinity test result” value [7] is reported as 13%. The “5-HT7 [%] binding assay result” value [8] was 78%, the “D3 [%] binding assay result” value [9] was 86% and the “5-HT1A [%] binding assay result” value [10] was 91%. For the same compound, the “D2 [%] binding assay result” value [11] was 90% and the “5-HT2A [%] binding assay result” value [12] was 80%.
For `O=S(=O)(c1ccccc1)n1ccc2c(N3CCN(CCCOc4ccc5ccoc5c4)CC3)cccc21` [Compound 25, 4-(4-(3-(Benzofuran-6-yloxy)propyl)piperazin-1-yl)-1-(phenylsulphonyl)-1H-indole], the “α1 [%] affinity test result” value [1] was 25%, the inhibition at 1 µM [2] was 75% and the inhibition at 1 µM [3] was 98%. For the same compound, the activation at 1 µM [4] was 30% and the activation at 1 µM [5] was -4%.
In the case of `NC(=O)c1ccccc1OCCCN1CCN(c2cccc3c2ccn3Cc2ccccc2)CC1` [Compound 60, 2-[3-[4-(1-Benzylindol-4-yl)piperazin-1-yl]propoxy]benzamide], the “α1 [%] affinity test result” value [1] is reported as 56%.
For `O=C1CCc2ccc(OCCCCN3CCN(c4cccc5c4ccn5Cc4ccccc4F)CC3)cc2N1` [Compound 61, 7-[4-[4-[1-[(2-Fluorophenyl)methyl]indol-4-yl]piperazin-1-yl]butoxy]-3,4-dihydro-1H-quinolin-2-one], the “α1 [%] affinity test result” value [1] was 13%.
For `NC(=O)c1ccccc1OCCCN1CCN(c2cccc3c2ccn3Cc2ccccc2F)CC1` [Compound 62, 2-[3-[4-[1-[(2-Fluorophenyl)methyl]indol-4-yl]piperazin-1-yl]propoxy]-benzamide], the “α1 [%] affinity test result” value [1] was 50%.
In the case of `NC(=O)c1ccccc1OCCCN1CCN(c2cccc3c2ccn3Cc2cccc(F)c2)CC1` [Compound 64, 2-[3-[4-[1-[(3-Fluorophenyl)methyl]indol-4-yl]piperazin-1-yl]propoxy]-benzamide], the “α1 [%] affinity test result” value [1] is reported as 57%.
With `O=C1CCc2ccc(OCCCCN3CCN(c4cccc5c4ccn5Cc4ccc(F)cc4)CC3)cc2N1` [Compound 65, 7-[4-[4-[1-[(4-Fluorophenyl)methyl]indol-4-yl]piperazin-1-yl]butoxy]-3,4-dihydro-1H-quinolin-2-one] the “α1 [%] affinity test result” value [1] was 59%.
`NC(=O)c1ccccc1OCCCN1CCN(c2cccc3c2ccn3Cc2ccc(F)cc2)CC1` [Compound 66, 2-[3-[4-[1-[(4-Fluorophenyl)methyl]indol-4-yl]piperazin-1-yl]propoxy]-benzamide] was tested, and the “α1 [%] affinity test result” value [1] was 42%.
With `NC(=O)c1ccccc1OCCCN1CCN(c2cccc3c2ccn3Cc2cccc(Cl)c2)CC1` [Compound 68, 2-[3-[4-[1-[(3-Chlorophenyl)methyl]indol-4-yl]piperazin-1-yl]propoxy]-benzamide] the “α1 [%] affinity test result” value [1] was 56%.
In the case of `O=S(=O)(c1ccccc1)n1ccc2c(N3CCN(CCCCOc4ccccc4)CC3)cccc21` [Compound 69, 1(Benzenesulfonyl)-4-[4-(4-phenoxybutyl)piperazin-1-yl]indole], the “α1 [%] affinity test result” value [1] is reported as 49%.
`O=S(=O)(c1ccccc1)n1ccc2c(N3CCN(CCCCOc4ccc(F)cc4)CC3)cccc21` [Compound 70, 1-(Benzenesulfonyl)-4-[4-[4-(4-fluorophenoxy)butyl]piperazin-1-yl]-indole] was tested, and the “α1 [%] affinity test result” value [1] was 54%.
`CC(C)Oc1ccccc1OCCCCN1CCN(c2cccc3c2ccn3S(=O)(=O)c2ccccc2)CC1` [Compound 71, 1-(Benzenesulfonyl)-4-[4-[4-(2-isopropoxyphenoxy)butyl]-piperazin-1-yl]indole] was tested, and the “α1 [%] affinity test result” value [1] was 40%.
